# Test results: PMC7127169 (Bioorganic & Medicinal Chemistry, 2012)
# “Also recorded” adds a separate entry of the source.
# Assays:
# Papain = target: T1, Papain (Carica papaya, UniProt P00784); assay: biochemical
# T1 sequence (P00784 134-345): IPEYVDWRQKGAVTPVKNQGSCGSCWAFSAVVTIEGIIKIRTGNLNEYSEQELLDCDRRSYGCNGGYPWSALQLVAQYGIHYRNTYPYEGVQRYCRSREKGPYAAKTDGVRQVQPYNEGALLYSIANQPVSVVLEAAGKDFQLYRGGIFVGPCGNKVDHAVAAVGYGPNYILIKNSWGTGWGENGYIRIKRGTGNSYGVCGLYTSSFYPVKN
# SARS-CoV PL^pro [1] = target: T2, SARS-CoV PL^pro (Severe acute respiratory syndrome coronavirus, UniProt P0C6U8); format: biochemical
# [2] = target: SARS-CoV PL^pro deubiquitination (DUB) activity (Severe acute respiratory syndrome coronavirus, UniProt P0C6U8); assay: biochemical
# SARS-CoV 3CL^pro = SARS-CoV 3CL^pro (Severe acute respiratory syndrome coronavirus, UniProt P0C6U8); format: biochemical; conditions: at 200 μM
# SARS-CoV PL^pro [3] = target: T2, SARS-CoV PL^pro; format: biochemical; remark: listed apart in the source
# Chymotrypsin = Chymotrypsin (Bos taurus, UniProt P00766); assay: biochemical
# HIV-1 protease = HIV-1 protease (Human immunodeficiency virus type 1 group M subtype B, UniProt P04585); assay: biochemical
Compound,IC50 (Papain) [µM],k5 (SARS-CoV PL^pro [1]) [min⁻¹],k6 (SARS-CoV PL^pro [1]) [min⁻¹],other results
"Cc1coc2c1C(=O)C(=O)c1c-2ccc2c(C)cccc12 [Compound 5, Tanshinone I]",> 200,0.03015 ± 0.003,0.003349 ± 0.0003,
"Cc1coc2c1C(=O)C(=O)c1c-2ccc2c1CCCC2(C)C [Compound 1, Tanshinone IIA]",,0.04825 ± 0.006,0.008485 ± 0.0001,IC50 [2]: > 200 µM
Salvianolic acid B,,,,inhibition of 3CL^pro (SARS-CoV 3CL^pro): 30%
"C[C@H]1COC2=C1C(=O)C(=O)c1c2ccc2c1CCCC2(C)C [Compound 4, Cryptotanshinone]",,0.08127 ± 0.001,0.001406 ± 0.0001,slow-binding inhibition mechanism on PL^pro (SARS-CoV PL^pro [1]): slow-binding inhibition kinetics; type of inhibition toward PL^pro (SARS-CoV PL^pro [3]): Noncompetitive inhibition
"Cc1coc2c1C(=O)C(=O)c1c-2ccc2c1CCCC2(C)CO (stereo not shown) [Compound 2, Tanshinone IIB]",> 200,0.02503 ± 0.003,0.004704 ± 0.0002,IC50 (Chymotrypsin): > 200 µM; IC50 (HIV-1 protease): > 200 µM
"CC(C)C1=Cc2ccc3c(c2C(=O)C1=O)CCCC3(C)C [Compound 7, Rosmariquinone]",,,,k3 (SARS-CoV PL^pro [1]): 5 ± 0.83 M⁻¹ s⁻¹; k4 (SARS-CoV PL^pro [1]): 0.006483 ± 0.0004 min⁻¹; slow-binding inhibition mechanism on PL^pro (SARS-CoV PL^pro [1]): simple reversible slow-binding inhibition; also recorded: simple slow-binding mode; also recorded: simple reversible slow-binding inhibitor; type of inhibition toward PL^pro (SARS-CoV PL^pro [3]): mixed type inhibition
"COC(=O)[C@@]1(C)CCCc2c1ccc1c2C(=O)C(=O)c2c(C)coc2-1 [Compound 3, Methyl tanshinonate]",> 200,0.0193 ± 0.001,0.002657 ± 0.0002,IC50 [2]: > 200 µM
"Cc1cccc2c3c(ccc12)C1=C(C(=O)C3=O)[C@@H](C)CO1 [Compound 6, Dihydrotanshinone I]",> 200,0.03203 ± 0.001,0.003175 ± 0.0003,IC50 (Chymotrypsin): > 200 µM
